The text below walks through data of patent publication US10668032B2 (SyneuRx International (Taiwan) Corp., priority 2016, dated 2020).

Structures are written as SMILES.

Assay [1] concerns primary cortical neurons. The experiment in a line: 3-NP induced toxicity in primary cortical culture (Hoechst staining, MAP-2 immunocytochemistry). Format: cell-based, rat. The settings on record: exposure to 3-NP alone (2.5 mM, 24 h); untreated 0.1. How it is done:
Primary cortical cultures were prepared from embryonic day 18 (E18) fetal Sprague Dawley (SD) rat brains. The cells were maintained in Neurobasal medium supplemented with B27 (GIBCO/Life Technologies of Thermo Fisher Scientific Corporation) at 37° C. for 7 days to allow growth of dendrites before experimentation.
3-NP (Cat. No. 73803, Sigma, St. Louis, Mo., USA) was dissolved in phosphate-buffered saline (PBS) as a stock solution of 1 M and adjusted to pH 7.4 with 10 M sodium hydroxide. The 3-NP stock solution was then dispensed into 1-ml aliquots, protected from light, and stored at −20° C. until use.
Hoechst staining is used to assess the extent of the cell survival. Cells were fixed in 4% paraformaldehyde (PFA) in phosphate-buffered saline (PBS), incubated with the Hoechst 33342 diluted in PBS (1:1000) for 5-15 minutes. The Hoechst staining is used to assess the extent of the cell survival after the exposure to 2.5 mM 3-NP for 24 hours.
Cells were fixed in 4% PFA and washed in PBS, blocked with 2% bovine serum albumin (BSA) and treated by 0.03% Triton X-100 in PBS, before being incubated with mouse monoclonal antibody against microtubule-associated protein-2 (MAP-2) in 1:150 dilution (Cat. No. MAB378, CHEMICON International, Inc., Temecula, Calif., USA). The goat anti-mouse IgG Alexa fluor-conjugated secondary antibodies (Cat No. A11003, Thermo Scientific) in 1:500 dilution were applied to recognize the primary antibodies of the MAP-2. For confocal microscopy, the coverslips were observed under a laser-scanning confocal microscope (Zeiss LSM700; Oberkochen, Germany) equipped with filter sets to detect the corresponding fluorescent signals.
The cells were then exposed to 2.5 mM 3-NP for 24 hours.
Quantitative analysis was also performed to assess the extents of cell death. At least three vision fields were randomly selected and the averaged numbers of dead cells and all nuclei per vision field on each coverslip were calculated.

Assay [2] concerns primary cortical neuronal culture. Nature of the assay: Detection of cellular reactive oxygen species (CellROX) after 3-NP in primary cortical culture. The assay is classed as cell-based, rat. To be noted: for ROS production induced by 3-NP: 0.5 mM, incubated 24 hours before 3-NP. As for the experimental part: Reactive oxygen species (ROS) are detected on primary cortical neuronal culture by CellROX Oxidative Reagents (catalog number 10444, Life Technologies Corp. USA). […] The cells were then exposed to 2.5 mM 3-NP for 24 hours. Subsequently, […] CellROX Reagent was added, and then incubated for […]. CellROX Green Reagent is a DNA dye, and upon oxidation, it binds to DNA; thus, its signal is localized in the nucleus and mitochondria. ROS were quantified by fluorescence intensity. The samples were observed under a laser scanning confocal microscope Zeiss LSM700 (Zeiss, Germany) equipped with filter sets to detect fluorescent signal.

Assay [3] concerns SH-SY5Y cells. The experiment in a line: MPTP toxicity in SH-SY5Y cells, MTT assay. To be noted: MPTP 750 μM, 24 hrs. Format: cell-based, human. How it is done: SH-SY5Y, the human neuroblastoma cell line, was incubated with MPTP (750 μM) for 24 hrs.
A general note: Tetrazolium dyes change colour on reduction, which living cells bring about.

Assay [4] has as its system cortical neurons. Nature of the assay: Mitochondrial respiration, XF Cell Mito Stress Test (OCR). Format: cell-based, rat. To be noted: 3 mM, pre-treatment 24 h. How it is done:
The preparation of primary cortical culture was as described before, but the cells were seeded on XF 96 well cell culture microplates. On the day of assay, culture media were changed to XF Assay medium (Seahorse Biosciences, USA). Prior to assay, plates were transferred into an incubator with CO2 supplementation at 37° C. and kept for 1 hour. The overall OCR was calculated.
The XF Cell Mito Stress Test modulates respiration that target components of the electron transport chain (ETC) in the mitochondria to reveal key parameters of metabolic function. The modulators (oligomycin, FCCP, and a mix of rotenone and antimycin A) are serially injected to measure ATP production, maximal respiration, and non-mitochondrial respiration. Proton leak and spare respiratory capacity are then calculated using these parameters.

The subject of assay [5] is primary cortical neurons. The experiment in a line: Aβ25-35 cytotoxicity in primary cortical culture, cell survival (MTT). The settings on record: 10 μM Aβ 25-35 for 2 days, then drug 1 mM for 4 days; vs no drug treatment.
Experimental: MTT assay was used to assess the extents of cell survival. MTT (3-(4,5-dimethylthiazol-2-yl)-2,5-diphenyltetrazolium bromide) was added to the culture, incubated at 37° C. for 4 hours. Insoluble purple formazan products were yield by living cells. The colorimetric method was used to quantify the surviving cells, and “cell survival (%)” was defined as the mean numbers of surviving cells.
Primary cortical cultures were prepared as previous described. Aβ25-35 (Cat. No. A4559, Sigma) was dissolved in autoclaved ddH2O to make a stock solution of 2 mM, dispensed into aliquots, and immediately stored at −80° C. until use.
In assay [6] the test system is GFAP positive cells in cortical culture. The experiment in a line: GFAP immunocytochemistry in cortical culture after Aβ25-35. Format: cell-based, rat. The settings on record: post-treatment 1 mM. As for the experimental part: Cells were fixed in 4% PFA and washed in PBS, blocked with 2% bovine serum albumin (BSA) and 0.03% Triton X-100 in PBS, and then incubated with mouse monoclonal antibody against microtubule-associated protein-2 (MAP-2) (Cat. No. MAB378, 1:150, CHEMICON International, Inc., Temecula, Calif., USA); rabbit polyclonal antibody against GFAP (Cat. No. Z0334, 1:600, DakoCytomation Denmark A/S, Denmark). The goat anti-mouse IgG Alexa Fluor-conjugated secondary antibodies (1:500; Cat No. A11003, Thermo Scientific); anti-rabbit IgG Alexa Fluor-conjugated secondary antibodies (1:500; Thermo Scientific) were applied respectively to recognize the primary antibodies of the MAP-2 and GFAP.
The coverslips were observed under a digital imaging fluorescence microscope (Olympus BX61; Japan) equipped with filter sets to detect the corresponding fluorescence signals.
Glial fibrillary acidic protein (GFAP) is an intermediate filament protein expressed by cells in the CNS, and is also recognized as an astrocyte maturation marker. Upregulation of GFAP, indicating gliosis, is commonly observed after CNS lesion; therefore, expression of GFAP could be useful to understand the state of neurological diseases.

Assay [7] deals with cortical cells with Aβ25-35 exposure. The experiment in a line: Aβ25-35 cytotoxicity with or without NMDA receptor antagonist MK801, cell survival.
Experimental: Aβ25-35 (Cat. No. A4559, Sigma) was dissolved in autoclaved ddH2O to make a stock solution of 2 mM, dispensed into aliquots, and immediately stored at −80° C. until use.
In this study, the application of MK801 could reveal whether the neuroprotective effects of drugs were mediated by NMDA receptor.

Consider `O=C(O)CC[N+](=O)[O-]` [3-NP, 3-Nitropropionic acid, reference compound], for which the “death index (ratio of dead cells to survived cells)” value in assay [1] amounted to 0.4. The “increase of ROS production” value in assay [2] (3-NP alone) was “more than 50%”.

As to `CN1CC=C(c2ccccc2)CC1` [MPTP, 1-methyl-4-phenyl-1,2,3,6-tetrahydropyridine, reference compound], in assay [3], the cell number reduction entry is recorded as “about 50%”.

As for `[Cl-].[Li+]` [lithium chloride, reference compound], the spare respiratory capacity entry in assay [4] is recorded as “less effective than LiBen”. Besides, the “cortical cell survival after Aβ25-35” value in assay [5] is reported as “statistical improvement”. The “number of GFAP positive cells after Aβ25-35 exposure” value in assay [6] is reported as “significantly reduced”. In addition, the “ROS production induced by 3-NP” value in assay [2] is reported as “reduce the amount of cellular ROS”.

With `O=C([O-])c1ccccc1.[Na+]` [sodium benzoate, reference compound], the spare respiratory capacity entry in assay [4] was “less effective than LiBen”. In assay [6], the “number of GFAP positive cells after Aβ25-35 exposure” value is listed as “did not influence”. Moreover, the “protective effect in the presence of MK801” value in assay [7] (1 mM, MK801 10 μM) is reported as “blocked”. In addition, the “cell survival with Aβ25-35 exposure” value in assay [7] (post-treatment 1 mM, MK801 0 μM) is on record as “elevate the cell survival”. In addition, the “ROS production induced by 3-NP” value in assay [2] is “reduce the amount of cellular ROS”.
